How the values were obtained:
Assay type in all cases: functional
[1] = tested on: SF-268; assay: Growth inhibition of human SF268 cells assessed as cell growth at 3X10'-7 M after 48 hrs by sulforhodamine B assay; settings: SF-268, 48 h, read-out: Activity
[2] = tested on: MOLT-4; assay: Growth inhibition of human MOLT4 cells assessed as cell growth at 3X10'-9 M after 48 hrs by sulforhodamine B assay; settings: MOLT-4, 48 h, read-out: Activity
[3] = tested on: KM12; assay: Growth inhibition of human KM12 cells assessed as cell growth at 3X10'-7 M after 48 hrs by sulforhodamine B assay; settings: KM12, 48 h, read-out: Activity
[4] = tested on: HL-60(TB); assay: Growth inhibition of human HL-60(TB) cells assessed as cell growth at 3X10'-8 M after 48 hrs by sulforhodamine B assay; settings: HL-60, 48 h, read-out: Activity
[5] = tested on: M14; assay: Growth inhibition of human M14 cells assessed as cell growth at 3X10'-9 M after 48 hrs by sulforhodamine B assay; settings: M14, 48 h, read-out: Activity
[6] = tested on: MDA-MB-468; assay: Growth inhibition of human MDA-MB-468 cells assessed as cell growth at 3X10'-7 M after 48 hrs by sulforhodamine B assay; settings: MDA-MB-468, 48 h, read-out: Activity
[7] = tested on: MDA-MB-231; assay: Growth inhibition of human MDA-MB-231 cells assessed as cell growth at 3X10'-9 M after 48 hrs by sulforhodamine B assay; settings: MDA-MB-231, 48 h, read-out: Activity
[8] = tested on: SR; assay: Growth inhibition of human SR cells assessed as cell growth at 3X10'-8 M after 48 hrs by sulforhodamine B assay; settings: read-out: Activity
[9] = tested on: SNB-19; assay: Growth inhibition of human SNB19 cells assessed as cell growth at 3X10'-8 M after 48 hrs by sulforhodamine B assay; settings: SNB-19, 48 h, read-out: Activity
[10] = tested on: MDA-MB-468; assay: Growth inhibition of human MDA-MB-468 cells assessed as cell growth at 3X10'-6 M after 48 hrs by sulforhodamine B assay; settings: MDA-MB-468, 48 h, read-out: Activity
[11] = tested on: U-251; assay: Growth inhibition of human U251 cells assessed as cell growth at 3X10'-5 M after 48 hrs by sulforhodamine B assay; settings: U-251, 48 h, read-out: Activity
[12] = tested on: MCF7; assay: Growth inhibition of human MCF7 cells assessed as cell growth at 3X10'-8 M after 48 hrs by sulforhodamine B assay; settings: MCF7, 48 h, read-out: Activity
[13] = tested on: SK-MEL-28; assay: Growth inhibition of human SK-MEL-28 cells assessed as cell growth at 3X10'-8 M after 48 hrs by sulforhodamine B assay; settings: SK-MEL-28, 48 h, read-out: Activity
[14] = tested on: NCI-H322M; assay: Growth inhibition of human NCI-H322M cells assessed as cell growth at 3X10'-6 M after 48 hrs by sulforhodamine B assay; settings: read-out: Activity
[15] = tested on: HOP-92; assay: Growth inhibition of human HOP92 cells assessed as cell growth at 3X10'-5 M after 48 hrs by sulforhodamine B assay; settings: HOP-92, 48 h, read-out: Activity
[16] = tested on: SR; assay: Growth inhibition of human SR cells assessed as cell growth at 3X10'-6 M after 48 hrs by sulforhodamine B assay; settings: read-out: Activity
[17] = tested on: BT-549; assay: Growth inhibition of human BT549 cells assessed as cell growth at 3X10'-8 M after 48 hrs by sulforhodamine B assay; settings: BT-549, 48 h, read-out: Activity
[18] = tested on: K562; assay: Growth inhibition of human K562 cells assessed as cell growth at 3X10'-6 M after 48 hrs by sulforhodamine B assay; settings: K562, 48 h, read-out: Activity
[19] = tested on: HL-60(TB); assay: Growth inhibition of human HL-60(TB) cells assessed as cell growth at 3X10'-6 M after 48 hrs by sulforhodamine B assay; settings: HL-60, 48 h, read-out: Activity
[20] = tested on: NCI-H226; assay: Growth inhibition of human NCI-H226 cells assessed as cell growth at 3X10'-6 M after 48 hrs by sulforhodamine B assay; settings: NCI-H226, 48 h, read-out: Activity
[21] = tested on: OVCAR-4; assay: Growth inhibition of human OVCAR4 cells assessed as cell growth at 3X10'-9 M after 48 hrs by sulforhodamine B assay; settings: OVCAR-4, 48 h, read-out: Activity
[22] = tested on: SN12C; assay: Growth inhibition of human SN12C cells assessed as cell growth at 3X10'-9 M after 48 hrs by sulforhodamine B assay; settings: read-out: Activity
[23] = tested on: U-251; assay: Growth inhibition of human U251 cells assessed as cell growth at 3X10'-9 M after 48 hrs by sulforhodamine B assay; settings: U-251, 48 h, read-out: Activity
[24] = tested on: SW-620; assay: Growth inhibition of human SW620 cells assessed as cell growth at 3X10'-8 M after 48 hrs by sulforhodamine B assay; settings: SW-620, 48 h, read-out: Activity
[25] = Growth inhibition of human Hs 578T cells assessed as cell growth at 3X10'-7 M after 48 hrs by sulforhodamine B assay; settings: read-out: Activity
[26] = tested on: SR; assay: Growth inhibition of human SR cells assessed as cell growth at 3X10'-9 M after 48 hrs by sulforhodamine B assay; settings: read-out: Activity
[27] = Growth inhibition of human NCI-ADR-RES cells assessed as cell growth at 3X10'-8 M after 48 hrs by sulforhodamine B assay; settings: read-out: Activity
[28] = tested on: IGROV-1; assay: Growth inhibition of human IGROV1 cells assessed as cell growth at 3X10'-7 M after 48 hrs by sulforhodamine B assay; settings: IGROV-1, 48 h, read-out: Activity
[29] = tested on: SF-268; assay: Growth inhibition of human SF268 cells assessed as cell growth at 3X10'-5 M after 48 hrs by sulforhodamine B assay; settings: SF-268, 48 h, read-out: Activity
[30] = tested on: RXF 393; assay: Growth inhibition of human RXF393 cells assessed as cell growth at 3X10'-5 M after 48 hrs by sulforhodamine B assay; settings: RXF 393, 48 h, read-out: Activity
[31] = tested on: SN12C; assay: Growth inhibition of human SN12C cells assessed as cell growth at 3X10'-5 M after 48 hrs by sulforhodamine B assay; settings: read-out: Activity
[32] = tested on: CAKI-1; assay: Growth inhibition of human CAKI-1 cells assessed as cell growth at 3X10'-6 M after 48 hrs by sulforhodamine B assay; settings: CAKI-1, 48 h, read-out: Activity
[33] = tested on: LOX IMVI; assay: Growth inhibition of human LOXIMVI cells assessed as cell growth at 3X10'-5 M after 48 hrs by sulforhodamine B assay; settings: read-out: Activity
[34] = tested on: NCI-H23; assay: Growth inhibition of human NCI-H23 cells assessed as cell growth at 3X10'-6 M after 48 hrs by sulforhodamine B assay; settings: NCI-H23, 48 h, read-out: Activity
[35] = tested on: U-251; assay: Growth inhibition of human U251 cells assessed as cell growth at 3X10'-8 M after 48 hrs by sulforhodamine B assay; settings: U-251, 48 h, read-out: Activity
[36] = tested on: SF-268; assay: Growth inhibition of human SF268 cells assessed as cell growth at 3X10'-6 M after 48 hrs by sulforhodamine B assay; settings: SF-268, 48 h, read-out: Activity
[37] = tested on: SF-295; assay: Growth inhibition of human SF295 cells assessed as cell growth at 3X10'-9 M after 48 hrs by sulforhodamine B assay; settings: SF-295, 48 h, read-out: Activity

## O=C(Nc1cccc(-n2cc(-c3ccncc3)c(-c3ccc(Cl)c(O)c3)n2)c1)Nc1ccc(Cl)c(Cl)c1
[1]
  growth at 0.3 µM: 102%
[2]
  growth at 0.003 µM: 98%
[3]
  growth at 0.3 µM: 90%
[4]
  growth at 0.03 µM: 101%
[5]
  growth at 0.003 µM: 93%
[6]
  growth at 0.3 µM: 76%
[7]
  growth at 0.003 µM: 102%
[8]
  growth at 0.03 µM: 98%
[9]
  growth at 0.03 µM: 98%
[10]
  growth at 3 µM: 2%
[11]
  growth at 30 µM: -28%
[12]
  growth at 0.03 µM: 93%
[13]
  growth at 0.03 µM: 102%
[14]
  growth at 3 µM: 47%
[15]
  growth at 30 µM: -31%
[16]
  growth at 3 µM: 11%
[17]
  growth at 0.03 µM: 102%
[18]
  growth at 3 µM: 16%
[19]
  growth at 3 µM: 16%
[20]
  growth at 3 µM: 28%
[21]
  growth at 0.003 µM: 103%
[22]
  growth at 0.003 µM: 93%
[23]
  growth at 0.003 µM: 98%
[24]
  growth at 0.03 µM: 98%
[25]
  growth at 0.3 µM: 82%
[26]
  growth at 0.003 µM: 91%
[27]
  growth at 0.03 µM: 97%
[28]
  growth at 0.3 µM: 107%
[29]
  growth at 30 µM: -21%
[30]
  growth at 30 µM: -37%
[31]
  growth at 30 µM: 3%
[32]
  growth at 3 µM: 17%
[33]
  growth at 30 µM: -77%
[34]
  growth at 3 µM: 11%
[35]
  growth at 0.03 µM: 100%
[36]
  growth at 3 µM: 23%

## O=C(Nc1cccc(-n2cc(-c3ccncc3)c(-c3ccc(Cl)c(O)c3)n2)c1)Nc1cccc(C(F)(F)F)c1
[1]
  growth at 0.3 µM: 96%
[2]
  growth at 0.003 µM: 97%
[3]
  growth at 0.3 µM: 97%
[4]
  growth at 0.03 µM: 94%
[5]
  growth at 0.003 µM: 97%
[6]
  growth at 0.3 µM: 81%
[7]
  growth at 0.003 µM: 103%
[8]
  growth at 0.03 µM: 99%
[9]
  growth at 0.03 µM: 98%
[10]
  growth at 3 µM: 17%
[11]
  growth at 30 µM: -48%
[12]
  growth at 0.03 µM: 96%
[13]
  growth at 0.03 µM: 100%
[14]
  growth at 3 µM: 63%
[15]
  growth at 30 µM: -33%
[16]
  growth at 3 µM: 33%
[17]
  growth at 0.03 µM: 96%
[18]
  growth at 3 µM: 22%
[19]
  growth at 3 µM: 41%
[20]
  growth at 3 µM: 66%
[37]
  growth at 0.003 µM: 94%
[21]
  growth at 0.003 µM: 101%
[22]
  growth at 0.003 µM: 98%
[23]
  growth at 0.003 µM: 100%
[24]
  growth at 0.03 µM: 95%
[25]
  growth at 0.3 µM: 89%
[26]
  growth at 0.003 µM: 94%
[27]
  growth at 0.03 µM: 97%
[28]
  growth at 0.3 µM: 100%
[29]
  growth at 30 µM: -17%
[30]
  growth at 30 µM: -37%
[31]
  growth at 30 µM: 16%
[32]
  growth at 3 µM: 35%
[33]
  growth at 30 µM: -50%
[34]
  growth at 3 µM: 36%
[35]
  growth at 0.03 µM: 100%
[36]
  growth at 3 µM: 37%

## O=C(Nc1cccc(-n2cc(-c3ccncc3)c(-c3ccc(Cl)c(O)c3)n2)c1)Nc1ccc(Cl)c(C(F)(F)F)c1
[1]
  growth at 0.3 µM: 93%
[2]
  growth at 0.003 µM: 110%
[3]
  growth at 0.3 µM: 96%
[4]
  growth at 0.03 µM: 116%
[5]
  growth at 0.003 µM: 100%
[6]
  growth at 0.3 µM: 72%
[7]
  growth at 0.003 µM: 92%
[8]
  growth at 0.03 µM: 104%
[9]
  growth at 0.03 µM: 94%
[10]
  growth at 3 µM: -27%
[11]
  growth at 30 µM: -80%
[12]
  growth at 0.03 µM: 90%
[13]
  growth at 0.03 µM: 97%
[14]
  growth at 3 µM: 9%
[15]
  growth at 30 µM: -63%
[16]
  growth at 3 µM: -10%
[17]
  growth at 0.03 µM: 106%
[18]
  growth at 3 µM: 3%
[19]
  growth at 3 µM: 6%
[20]
  growth at 3 µM: 30%
[37]
  growth at 0.003 µM: 92%
[21]
  growth at 0.003 µM: 99%
[22]
  growth at 0.003 µM: 95%
[23]
  growth at 0.003 µM: 98%
[24]
  growth at 0.03 µM: 101%
[25]
  growth at 0.3 µM: 76%
[26]
  growth at 0.003 µM: 106%
[27]
  growth at 0.03 µM: 102%
[28]
  growth at 0.3 µM: 85%
[29]
  growth at 30 µM: -20%
[30]
  growth at 30 µM: -49%
[31]
  growth at 30 µM: -6%
[32]
  growth at 3 µM: -9%
[33]
  growth at 30 µM: -91%
[34]
  growth at 3 µM: 1%
[35]
  growth at 0.03 µM: 96%
[36]
  growth at 3 µM: 10%
